Measurements from patent publication US9179678B2, “Substituted [1,2,4]triazoles and substituted tetrazoles as herbicides” (SYNGENTA LIMITED, priority 2012, dated 2015).

Columns and labels:
Type in all cases: in vivo
[1] = test system: Echinochloa crus-galli (ECHCG); test: Pre-emergence glasshouse herbicide test; settings: PRE Application, 1000 g/h, after 13 days
Protocol: (§1) Seeds of a variety of test species are sown in standard soil in pots (Alopecurus myosuroides (ALOMY), Setaria faberi (SETFA), Echinochloa crus-galli (ECHCG), Solanum nigrum (SOLNI), Amaranthus retoflexus (AMARE), Ipomoea hederacea (IPOHE)). After cultivation for one day (pre-emergence) or after 8 days cultivation (post-emergence) under controlled conditions in a glasshouse (at 24/16° C., day/night; 14 hours light; 65% humidity), the plants are sprayed with an aqueous spray solution derived from the formulation of the technical active ingredient in acetone/water (50:50) solution containing 0.5% Tween 20 (polyoxyethelyene sorbitan monolaurate, CAS RN 9005-64-5). Compounds ae applied at 1000 g/h. The test plants are then grown in a glasshouse under controlled conditions in a glasshouse (at 24/16° C., day/night; 14 hours light; 65% humidity) and watered twice daily. After 13 days for pre and post-emergence, the test is evaluated for the percentage damage caused to the plant. The biological activities are shown in the following table on a five point scale (5=80-100%; 4=60-79%; 3=40-59%; 2=20-39%; 1=0-19%).

Solanum nigrum (SOLNI) [2] = test: Pre-emergence glasshouse herbicide test; settings: PRE Application, 1000 g/h, after 13 days
Protocol: as §1

[3] = test system: Ipomoea hederacea (IPOHE); test: Pre-emergence glasshouse herbicide test; settings: PRE Application, 1000 g/h, after 13 days
Protocol: as §1

Setaria faberi (SETFA) [4] = test: Pre-emergence glasshouse herbicide test; settings: PRE Application, 1000 g/h, after 13 days
Protocol: as §1

[5] = test system: Amaranthus retoflexus (AMARE); test: Pre-emergence glasshouse herbicide test; settings: PRE Application, 1000 g/h, after 13 days
Protocol: as §1

[6] = test system: Alopecurus myosuroides (ALOMY); test: Pre-emergence glasshouse herbicide test; settings: PRE Application, 1000 g/h, after 13 days
Protocol: as §1

Setaria faberi (SETFA) [7] = test: Post-emergence glasshouse herbicide test; settings: POST Application, 1000 g/h, after 13 days
Protocol: as §1, with “Compounds ae applied at 1000 g/h.” left out

[8] = test system: Echinochloa crus-galli (ECHCG); test: Post-emergence glasshouse herbicide test; settings: POST Application, 1000 g/h, after 13 days
Protocol: as §1

Solanum nigrum (SOLNI) [9] = test: Post-emergence glasshouse herbicide test; settings: POST Application, 1000 g/h, after 13 days
Protocol: as §1

[10] = test system: Ipomoea hederacea (IPOHE); test: Post-emergence glasshouse herbicide test; settings: POST Application, 1000 g/h, after 13 days
Protocol: as §1

[11] = test system: Amaranthus retoflexus (AMARE); test: Post-emergence glasshouse herbicide test; settings: POST Application, 1000 g/h, after 13 days
Protocol: as §1

[12] = test system: Alopecurus myosuroides (ALOMY); test: Post-emergence glasshouse herbicide test; settings: POST Application, 1000 g/h, after 13 days
Protocol: as §1

SMILES	percentage damage caused to the plant, ECHCG [1]	percentage damage caused to the plant, SOLNI (Solanum nigrum (SOLNI) [2])	percentage damage caused to the plant, IPOHE [3]	percentage damage caused to the plant, SETFA (Setaria faberi (SETFA) [4])	percentage damage caused to the plant, AMARE [5]	percentage damage caused to the plant, ALOMY [6]	percentage damage caused to the plant, SETFA (Setaria faberi (SETFA) [7])	percentage damage caused to the plant, ECHCG [8]	percentage damage caused to the plant, SOLNI (Solanum nigrum (SOLNI) [9])	percentage damage caused to the plant, IPOHE [10]	percentage damage caused to the plant, AMARE [11]	percentage damage caused to the plant, ALOMY [12]
Cn1nnnc1NC(=O)c1nc2ccccc2n(-c2cccc(F)c2)c1=O [Compound 5.018]	5 (5=80-100%)	5 (5=80-100%)	5 (5=80-100%)	5 (5=80-100%)	5 (5=80-100%)	5 (5=80-100%)	5 (5=80-100%)	5 (5=80-100%)	5 (5=80-100%)	5 (5=80-100%)	5 (5=80-100%)	5 (5=80-100%)
Cn1nnnc1NC(=O)c1nc2ccccc2n(-c2ccc(C(F)(F)F)cc2)c1=O [Compound 5.019]	5 (5=80-100%)	5 (5=80-100%)	5 (5=80-100%)	5 (5=80-100%)	5 (5=80-100%)	4 (4=60-79%)	5 (5=80-100%)	5 (5=80-100%)	5 (5=80-100%)	5 (5=80-100%)	5 (5=80-100%)	3 (3=40-59%)
CSc1ccc(-n2c(=O)c(C(=O)Nc3nnnn3C)nc3ccccc32)cc1 [Compound 5.020]	3 (3=40-59%)	5 (5=80-100%)	3 (3=40-59%)	1 (1=0-19%)	5 (5=80-100%)	1 (1=0-19%)	2 (2=20-39%)	5 (5=80-100%)	5 (5=80-100%)	5 (5=80-100%)	5 (5=80-100%)	5 (5=80-100%)
Cn1nnnc1NC(=O)c1nc2ccccc2n(-c2cccc(C#N)c2)c1=O [Compound 5.021]	5 (5=80-100%)	5 (5=80-100%)	5 (5=80-100%)	5 (5=80-100%)	5 (5=80-100%)	5 (5=80-100%)	5 (5=80-100%)	2 (2=20-39%)	5 (5=80-100%)	5 (5=80-100%)	5 (5=80-100%)	4 (4=60-79%)
Cn1nnnc1NC(=O)c1nc2ccccc2n(-c2ccc([N+](=O)[O-])cc2)c1=O [Compound 5.022]	5 (5=80-100%)	5 (5=80-100%)	4 (4=60-79%)	5 (5=80-100%)	5 (5=80-100%)	3 (3=40-59%)	4 (4=60-79%)	4 (4=60-79%)	5 (5=80-100%)	5 (5=80-100%)	5 (5=80-100%)	2 (2=20-39%)
Cn1nnnc1NC(=O)c1nc2ccccc2n(-c2cccc(Br)c2)c1=O [Compound 5.024]	5 (5=80-100%)	5 (5=80-100%)	5 (5=80-100%)	5 (5=80-100%)	5 (5=80-100%)	5 (5=80-100%)	5 (5=80-100%)	5 (5=80-100%)	5 (5=80-100%)	4 (4=60-79%)	5 (5=80-100%)	5 (5=80-100%)
Cn1nnnc1NC(=O)c1nc2ccccc2n(-c2cccc([N+](=O)[O-])c2)c1=O [Compound 5.025]	3 (3=40-59%)	5 (5=80-100%)	4 (4=60-79%)	2 (2=20-39%)	5 (5=80-100%)	2 (2=20-39%)	5 (5=80-100%)	5 (5=80-100%)	5 (5=80-100%)	4 (4=60-79%)	5 (5=80-100%)	5 (5=80-100%)
Cn1nnnc1NC(=O)c1nc2ccccc2n(-c2cccc(C(F)(F)F)c2)c1=O [Compound 5.026]	5 (5=80-100%)	5 (5=80-100%)	5 (5=80-100%)	5 (5=80-100%)	5 (5=80-100%)	5 (5=80-100%)	5 (5=80-100%)	5 (5=80-100%)	5 (5=80-100%)	5 (5=80-100%)	5 (5=80-100%)	5 (5=80-100%)
C=Cc1cccc(-n2c(=O)c(C(=O)Nc3nnnn3C)nc3ccccc32)c1 [Compound 5.027]	5 (5=80-100%)	5 (5=80-100%)	5 (5=80-100%)	5 (5=80-100%)	5 (5=80-100%)	5 (5=80-100%)	5 (5=80-100%)	5 (5=80-100%)	5 (5=80-100%)	5 (5=80-100%)	5 (5=80-100%)	5 (5=80-100%)
Cn1nnnc1NC(=O)c1nc2ccccc2n(-c2ccc(F)cc2)c1=O [Compound 5.029]	5 (5=80-100%)	5 (5=80-100%)	5 (5=80-100%)	5 (5=80-100%)	5 (5=80-100%)	5 (5=80-100%)	5 (5=80-100%)	5 (5=80-100%)	5 (5=80-100%)	5 (5=80-100%)	5 (5=80-100%)	4 (4=60-79%)
